Where “and” joins values, the source holds several entries; their conditions need not be identical. Identical values can stand only once.
Assays:
[1] = test system: human primary hepatocytes; experiment: Intracellular lipid accumulation (steatosis) in primary human hepatocytes co-treated with sFA+TNF-α, LipidTOX fluorescence microscopy after 72h; assay type: cell-based; design: Rx effect (lipid): scale not given here; conditions: for Rx effect (Lipid: total lipid area subtracted from baseline sFA+TNFa, normalized to nuclei count): 72 h; for Rx effect (lipid): donor 2
Method: Hepatocyte lipotoxicity appears to be a central driver of hepatic cellular injury via oxidative stress and endoplasmic reticulum (ER) stress. The ability of amino acids combined to therapeutics agents (Rx) to influence steatosis (lipid accumulation) and inflammation in hepatocytes was assessed using human primary hepatocytes purchased from two sources: Lonza and Sekisui Xenotech. […] After 6 hours, cells were washed twice and incubated overnight at 37° C., 5% CO2 in hepatocytes plating media. On day 1, cells were washed twice and incubated for 24h in Hepatocytes defined medium (Corning) supplemented with 2mM Glutamax (Gibco), and 1x Penicillin/Streptomycin in the same conditions described above. […] The values are published in the Human Metabolome Database (Wishart DS, Tzur D, Knox C, et al., HMDB: the Human Metabolome Database. Nucleic Acids Res. 2007 Jan; 35(Database issue):[…]-6. 17202168; which is hereby incorporated by reference in its entirety). […] After 24 hours incubation, media was removed for chemokine analysis (MCP1) and the same co treatment was reapplied for an additional 48 hours for a total of 72 hours. After 72 hours, cells were washed twice with PBS 1x (Gibco), fixed with 4% Paraformaldehyde, and washed twice with PBS 1x (100 ul). […] The LipidTOXTM neutral lipid stain has an extremely high affinity for neutral lipid droplets that was detected by fluorescence microscopy using a high content imager (Molecular Devices). Lipid was normalized to the specific per well cell density determined by nuclei count.

MCP1/CCL2 secretion = MCP1/CCL2 secretion by primary human hepatocytes co-treated with sFA+TNF-α, ELISA after 24h; assay type: cell-based; design: Rx effect / Rx effect (MCP1): scale not given here; conditions: for Rx effect: MCP1; for MCP1 level / MCP1 secretion compared to baseline (sFA+TNF-α): Results 1, donors 1 and 2, AA compositions at 20X; for MCP1 level / MCP1 secretion level compared to the baseline (sFA+TNF-α): Results 2, donor 2
Method: Hepatocyte lipotoxicity appears to be a central driver of hepatic cellular injury via oxidative stress and endoplasmic reticulum (ER) stress. The ability of amino acids combined to therapeutics agents (Rx) to influence steatosis (lipid accumulation) and inflammation in hepatocytes was assessed using human primary hepatocytes purchased from two sources: Lonza and Sekisui Xenotech. Primary hepatocytes from two healthy human donor were seeded on day 0 at density of 60000 cells in 96 well optical microplates (Thermofisher) in hepatocyte plating media (William's E medium (Gibco) supplemented with 10% heat-inactivated FBS (Atlanta Bio), 2mM Glutamax (Gibco), and 0.2% Primocin (InVivoGen) and incubated for 6 hours at 37° C., 5% CO2. After 6 hours, cells were washed twice and incubated overnight at 37° C., 5% CO2 in hepatocytes plating media. On day 1, cells were washed twice and incubated for 24h in Hepatocytes defined medium (Corning) supplemented with 2mM Glutamax (Gibco), and 1x Penicillin/Streptomycin in the same conditions described above. On day 2, cells were washed twice with DPBS 1X (Gibco) and maintained in amino acid-free WEM (US Biologicals) containing a defined custom amino acid concentration based on the mean physiological concentrations in blood. The values are published in the Human Metabolome Database (Wishart DS, Tzur D, Knox C, et al., HMDB: the Human Metabolome Database. Nucleic Acids Res. 2007 Jan; 35(Database issue):[…]-6. 17202168; which is hereby incorporated by reference in its entirety). […] Cells were maintained in this defined pretreatment media for 24 hours at 37° C., 5% CO2. […] After 24 hours incubation, media was removed for chemokine analysis (MCP1) and the same co treatment was reapplied for an additional 48 hours for a total of 72 hours. Human CCL2 (MCP-1) was measured by ELISA (Human […] DuoSet ELISA, R&D Systems) at 1/20 dilution in 1X Reagent Diluent (Reagent Ancillary Kit 2, R&D Systems). Lipid was normalized to the specific per well cell density determined by nuclei count.

[2] = Results 1, donors 1 and 2, AA compositions at 20X

O=C(O)c1ccnc(N2CC(O)(c3ccc(OCc4c(-c5c(Cl)cccc5Cl)noc4C4CC4)cc3Cl)C2)c1 [Cilofexor, 2-(3-(2-chloro-4-((5-cyclopropyl-3-(2,6-dichlorophenyl)isoxazol-4-yl)methoxy)phenyl)-3-hydroxyazetidin-1-yl)isonicotinic acid]
Rx effect (Lipid: total lipid area subtracted from baseline sFA+TNFa, normalized to nuclei count) ([1]; Donor 1, Rx Conc. 0.031 µM): 0.019
Rx effect (Lipid: total lipid area subtracted from baseline sFA+TNFa, normalized to nuclei count) ([1]; Donor 1, Rx Conc. 0.125 µM): 0.072
Rx effect (Lipid: total lipid area subtracted from baseline sFA+TNFa, normalized to nuclei count) ([1]; Donor 1, Rx Conc. 0.500 µM): 0.027
Rx effect (Lipid: total lipid area subtracted from baseline sFA+TNFa, normalized to nuclei count) ([1]; Donor 1, Rx Conc. 2.000 µM): 0.195
Rx effect (Lipid: total lipid area subtracted from baseline sFA+TNFa, normalized to nuclei count) ([1]; Donor 2, Rx Conc. 0.031 µM): -0.049
Rx effect (Lipid: total lipid area subtracted from baseline sFA+TNFa, normalized to nuclei count) ([1]; Donor 2, Rx Conc. 0.125 µM): 0.031
Rx effect (Lipid: total lipid area subtracted from baseline sFA+TNFa, normalized to nuclei count) ([1]; Donor 2, Rx Conc. 0.500 µM): 0.104
Rx effect (Lipid: total lipid area subtracted from baseline sFA+TNFa, normalized to nuclei count) ([1]; Donor 2, Rx Conc. 2.000 µM): 0.050
lipid level compared to baseline (sFA+TNFa) [1, 2]: no changes
lipid level compared to baseline (sFA+TNFa) ([1]; Results 2, donor 2): no changes in lipid level
Rx effect (lipid) ([1]; Rx 0.0313 µM): -0.110
Rx effect (lipid) ([1]; Rx 0.125 µM): 0.001
Rx effect (lipid) ([1]; Rx 0.5 µM): 0.088
Rx effect (lipid) ([1]; Rx 2 µM): 0.080
Rx effect (MCP1/CCL2 secretion; donor 1, Rx 0.031 µM): -0.009
Rx effect (MCP1/CCL2 secretion; donor 1, Rx 0.125 µM): 0.582
Rx effect (MCP1/CCL2 secretion; donor 1, Rx 0.500 µM): 1.210
Rx effect (MCP1/CCL2 secretion; donor 1, Rx 2.000 µM): 1.898
Rx effect (MCP1/CCL2 secretion; donor 2, Rx 0.125 µM): 0.28
Rx effect (MCP1/CCL2 secretion; donor 2, Rx 0.500 µM): 0.47
Rx effect (MCP1/CCL2 secretion; donor 2, Rx 2.000 µM): 0.69 and 0.695
MCP1 level / MCP1 secretion compared to baseline (sFA+TNF-α) (MCP1/CCL2 secretion): slight increase
MCP1 level / MCP1 secretion level compared to the baseline (sFA+TNF-α) (MCP1/CCL2 secretion): no change or a slight increase in MCP1 secretion level
Rx effect (MCP1) (MCP1/CCL2 secretion; donor 2, Rx 0.0313 µM): -0.265
Rx effect (MCP1) (MCP1/CCL2 secretion; donor 2, Rx 0.125 µM): 0.229
Rx effect (MCP1) (MCP1/CCL2 secretion; donor 2, Rx 0.5 µM): 0.525
Rx effect (MCP1) (MCP1/CCL2 secretion; donor 2, Rx 2 µM): 0.301

COc1ccccc1[C@H](Cn1c(=O)n(C(C)(C)C(=O)O)c(=O)c2c(C)c(-c3ncco3)sc21)OC1CCOCC1 [Firsocostat, (R)-2-(1-(2-(2-methoxyphenyl)-2-((tetrahydro-2H-pyran-4-yl)oxy)ethyl)-5-methyl-6-(oxazol-2-yl)-2,4-dioxo-1,4-dihydrothieno[2,3-d]pyrimidin-3(2H)-yl)-2-methylpropanoic acid]
Rx effect (Lipid: total lipid area subtracted from baseline sFA+TNFa, normalized to nuclei count) ([1]; Donor 1, Rx Conc. 0.063 µM): -0.210
Rx effect (Lipid: total lipid area subtracted from baseline sFA+TNFa, normalized to nuclei count) ([1]; Donor 1, Rx Conc. 1.000 µM): -0.412
Rx effect (Lipid: total lipid area subtracted from baseline sFA+TNFa, normalized to nuclei count) ([1]; Donor 1, Rx Conc. 4.000 µM): -0.317
Rx effect (Lipid: total lipid area subtracted from baseline sFA+TNFa, normalized to nuclei count) ([1]; Donor 2, Rx Conc. 0.063 µM): -0.246
Rx effect (Lipid: total lipid area subtracted from baseline sFA+TNFa, normalized to nuclei count) ([1]; Donor 2, Rx Conc. 1.000 µM): -0.449
Rx effect (Lipid: total lipid area subtracted from baseline sFA+TNFa, normalized to nuclei count) ([1]; Donor 2, Rx Conc. 4.000 µM): -0.485
lipid level compared to baseline (sFA+TNFa) [1, 2]: slight reduction in lipid level
lipid level compared to baseline (sFA+TNFa) ([1]; Results 2, donor 2): slight reduction in lipid level
Rx effect (lipid) ([1]; Rx 0.0625 µM): -0.147
Rx effect (lipid) ([1]; Rx 1 µM): -0.404
Rx effect (lipid) ([1]; Rx 4 µM): -0.458
Rx effect (MCP1/CCL2 secretion; donor 1, Rx 0.063 µM): -0.233
Rx effect (MCP1/CCL2 secretion; donor 1, Rx 1.000 µM): -0.827
Rx effect (MCP1/CCL2 secretion; donor 1, Rx 4.000 µM): -0.479
Rx effect (MCP1/CCL2 secretion; donor 2, Rx 0.063 µM): -0.319
Rx effect (MCP1/CCL2 secretion; donor 2, Rx 1.000 µM): -0.614
Rx effect (MCP1/CCL2 secretion; donor 2, Rx 4.000 µM): -0.775
MCP1 level / MCP1 secretion compared to baseline (sFA+TNF-α) (MCP1/CCL2 secretion): slight reduction in MCP1 secretion
MCP1 level / MCP1 secretion level compared to the baseline (sFA+TNF-α) (MCP1/CCL2 secretion): no change or a slight reduction in MCP1 secretion level
Rx effect (MCP1) (MCP1/CCL2 secretion; donor 2, Rx 0.0625 µM): -0.147
Rx effect (MCP1) (MCP1/CCL2 secretion; donor 2, Rx 1 µM): -0.682
Rx effect (MCP1) (MCP1/CCL2 secretion; donor 2, Rx 4 µM): -0.510

Cc1cc(F)c(C(=O)Nc2cccc(-c3nncn3C(C)C)n2)cc1-n1cnc(C2CC2)c1 [Selonsertib, 5-(4-cyclopropyl-1H-imidazol-1-yl)-2-fluoro-N-(6-(4-isopropyl-4H-1,2,4-triazol-3-yl)pyridin-2-yl)-4-methylbenzamide]
Rx effect (Lipid: total lipid area subtracted from baseline sFA+TNFa, normalized to nuclei count) ([1]; Donor 1, Rx Conc. 0.063 µM): -0.060
Rx effect (Lipid: total lipid area subtracted from baseline sFA+TNFa, normalized to nuclei count) ([1]; Donor 1, Rx Conc. 1.000 µM): -0.154
Rx effect (Lipid: total lipid area subtracted from baseline sFA+TNFa, normalized to nuclei count) ([1]; Donor 1, Rx Conc. 4.000 µM): -0.152
Rx effect (Lipid: total lipid area subtracted from baseline sFA+TNFa, normalized to nuclei count) ([1]; Donor 2, Rx Conc. 0.063 µM): -0.096
Rx effect (Lipid: total lipid area subtracted from baseline sFA+TNFa, normalized to nuclei count) ([1]; Donor 2, Rx Conc. 1.000 µM): -0.164
Rx effect (Lipid: total lipid area subtracted from baseline sFA+TNFa, normalized to nuclei count) ([1]; Donor 2, Rx Conc. 4.000 µM): -0.307
lipid level compared to baseline (sFA+TNFa) [1, 2]: slight reduction in lipid level
lipid level compared to baseline (sFA+TNFa) ([1]; Results 2, donor 2): slight reduction in lipid level
Rx effect (lipid) ([1]; Rx 0.0625 µM): -0.024
Rx effect (lipid) ([1]; Rx 1 µM): -0.156
Rx effect (lipid) ([1]; Rx 4 µM): -0.178
Rx effect (MCP1/CCL2 secretion; donor 1, Rx 0.063 µM): -0.167
Rx effect (MCP1/CCL2 secretion; donor 1, Rx 1.000 µM): -0.503
Rx effect (MCP1/CCL2 secretion; donor 1, Rx 4.000 µM): -0.552
Rx effect (MCP1/CCL2 secretion; donor 2, Rx 0.063 µM): -0.306
Rx effect (MCP1/CCL2 secretion; donor 2, Rx 1.000 µM): -0.152
Rx effect (MCP1/CCL2 secretion; donor 2, Rx 4.000 µM): -0.462
MCP1 level / MCP1 secretion compared to baseline (sFA+TNF-α) (MCP1/CCL2 secretion): slight reduction in MCP1 secretion
MCP1 level / MCP1 secretion level compared to the baseline (sFA+TNF-α) (MCP1/CCL2 secretion): no change or a slight reduction in MCP1 secretion level
Rx effect (MCP1) (MCP1/CCL2 secretion; donor 2, Rx 0.0625 µM): 0.004
Rx effect (MCP1) (MCP1/CCL2 secretion; donor 2, Rx 1 µM): -0.411
Rx effect (MCP1) (MCP1/CCL2 secretion; donor 2, Rx 4 µM): -0.463

O=C(O)c1cc(F)c2nc(N3C4CC[C@H]3C[C@H](OCc3c(-c5ccccc5OC(F)(F)F)noc3C3CC3)C4)sc2c1 [Tropifexor, 2-[(3-endo)-3-[[5-cyclopropyl-3-[2-(trifluoromethoxy)phenyl]-4-isoxazolyl]methoxy]-8-azabicyclo[3.2.1]oct-8-yl]-4-fluoro-6-benzothiazolecarboxylic acid]
Rx effect (Lipid: total lipid area subtracted from baseline sFA+TNFa, normalized to nuclei count) ([1]; Donor 1, Rx Conc. 0.063 µM): 0.169
Rx effect (Lipid: total lipid area subtracted from baseline sFA+TNFa, normalized to nuclei count) ([1]; Donor 1, Rx Conc. 1.000 µM): 0.185
Rx effect (Lipid: total lipid area subtracted from baseline sFA+TNFa, normalized to nuclei count) ([1]; Donor 1, Rx Conc. 4.000 µM): 0.214
Rx effect (Lipid: total lipid area subtracted from baseline sFA+TNFa, normalized to nuclei count) ([1]; Donor 2, Rx Conc. 0.063 µM): 0.132
Rx effect (Lipid: total lipid area subtracted from baseline sFA+TNFa, normalized to nuclei count) ([1]; Donor 2, Rx Conc. 1.000 µM): 0.083
Rx effect (Lipid: total lipid area subtracted from baseline sFA+TNFa, normalized to nuclei count) ([1]; Donor 2, Rx Conc. 4.000 µM): 0.049
lipid level compared to baseline (sFA+TNFa) [1, 2]: slight increase in lipid level
Rx effect (MCP1/CCL2 secretion; donor 1, Rx 0.063 µM): 0.956
Rx effect (MCP1/CCL2 secretion; donor 1, Rx 1.000 µM): 0.877
Rx effect (MCP1/CCL2 secretion; donor 1, Rx 4.000 µM): 0.658
Rx effect (MCP1/CCL2 secretion; donor 2, Rx 0.063 µM): -0.16
MCP1 level / MCP1 secretion compared to baseline (sFA+TNF-α) (MCP1/CCL2 secretion): slight increase
